Results: US20160193206A1, “BET-PROTEIN-INHIBITING DIHYDROPYRIDOPYRAZINONES” (BAYER PHARMA AKTIENGESELLSCHAFT, priority 2012, published 2016)
pIC50: −log10 of the molar value.

What was measured:
[1] = molecular target: T1, BRD4 bromo domain 1 [BRD4(1)] (Homo sapiens, UniProt O60885); experiment: BRD4(1)/acetylated peptide H4 binding assay (TR-FRET); details: inhibition of interaction between His6-tagged BRD4(1) (amino acids 67-152) and acetylated histone H4 peptide
T1 construct: N-terminally His6-tagged BRD4(1) (amino acids 67-152); made in house; host or cells: E. coli
Excerpt: (§1) Protein-Protein Interaction Assay: BRD4/Acetylated Peptide H4 Binding Assay
1. Assay Description for BRD4 Bromo Domain 1 [BRD4(1)]
To assess the BRD4(1) binding strength of the substances described in this application, the ability thereof to inhibit the interaction between BRD4(1) and acetylated histone H4 in a dose-dependent manner was quantified.
(§2) For this purpose, a time-resolved fluorescence resonance energy transfer (TR-FRET) assay was used, which measures the binding between N-terminally His6-tagged BRD4(1) (amino acids 67-152) and a synthetic acetylated histone H4 (Ac-H4) peptide with sequence GRGK(Ac)GGK(Ac)GLGK(Ac)GGAK(Ac)RHGSGSK-biotin. The recombinant BRD4(1) protein produced in-house according to Filippakopoulos et al., Cell, 2012, 149:214-231 was expressed in E. coli and purified by means of (Ni-NTA) affinity and (Sephadex G-75) size exclusion chromatography. The Ac-H4 peptide can be purchased, for example, from Biosyntan (Berlin, Germany).
(§3) In the assay, typically 11 different concentrations of each substance (0.1 nM, 0.33 nM, 1.1 nM, 3.8 nM, 13 nM, 44 nM, 0.15 μM, 0.51 μM, 1.7 μM, 5.9 μM and 20 μM) were analysed as duplicates on the same microtitre plate. For this purpose, 100-fold concentrated solutions in DMSO were prepared by serial dilutions (1:3.4) of a 2 mM stock solution into a clear, 384-well microtitre plate (Greiner Bio-One, Frickenhausen, Germany). From this, 50 nl were transferred into a black test plate (Greiner Bio-One, Frickenhausen, Germany). The test was started by the addition of 2 μl of a 2.5-fold concentrated BRD4(1) solution (final concentration typically 10 nM in the 5 μl of reaction volume) in aqueous assay buffer [50 mM HEPES pH 7.5, 50 mM sodium chloride (NaCl), 0.25 mM CHAPS and 0.05% serum albumin (BSA)] to the substances in the test plate. This was followed by a 10-minute incubation step at 22° C. for the pre-equilibration of putative complexes between BRD4(1) and the substances.
(§4) The mixture was then incubated in the dark at 22° C. for one hour and then at 4° C. for at least 3 hours and for no longer than overnight. The formation of BRD4(1)/Ac-H4 complexes was determined by the measurement of the resonance energy transfer from the streptavidin-Eu cryptate to the anti-6His-XL665 antibody present in the reaction. For this purpose, the fluorescence emission was measured at 620 nm and 665 nm after excitation at 330-350 nm in a TR-FRET measuring instrument, for example a Rubystar or Pherastar (both from BMG Lab Technologies, Offenburg, Germany) or a Viewlux (Perkin-Elmer). The ratio of the emissions at 665 nm and at 622 nm was taken as an indicator of the amount of BRD4(1)/Ac-H4 complexes formed.
(§5) The data (ratios) obtained were normalized, with 0% inhibition corresponding to the mean from the measurements for a set of controls (typically 32 data points) in which all the reagents were present. In these, in place of test substances, 50 nl of DMSO (100%) were used. Inhibition of 100% corresponded to the mean from the measurements for a set of controls (typically 32 data points) in which all the reagents except BRD4(1) were present. The IC50 was determined by regression analysis based on a 4-parameter equation (minimum, maximum, IC50, Hill; Y=max+(min−max)/(1+(X/IC50)Hill).

[2] = molecular target: T2, BRD4 bromo domain 2 [BRD4(2)] (Homo sapiens, UniProt O60885); experiment: BRD4(2)/acetylated peptide H4 binding assay (TR-FRET); details: inhibition of interaction between His6-tagged BRD4(2) (amino acids 357-445) and acetylated histone H4 peptide
T2 construct: N-terminally His6-tagged BRD4(2) (amino acids 357-445); made in house; host or cells: E. coli
Excerpt: as §1
2. Assay Description for BRD4 Bromo Domain 2 [BRD4(2)]
To assess the BRD4(2) binding strength of the substances described in this application, the ability thereof to inhibit the interaction between BRD4(2) and acetylated histone H4 in a dose-dependent manner was quantified.
as §2, with “BRD4(2)” for “BRD4(1)”, “357-445)” for “67-152)”, “SGRGK(Ac)GGK(Ac)GLGK(Ac)GGAK(Ac)RHRKVLRDNGSGSK-biotin.” for “GRGK(Ac)GGK(Ac)GLGK(Ac)GGAK(Ac)RHGSGSK-biotin.”
as §3, with “concentrated BRD4(2)” for “concentrated BRD4(1)”, “typically 100” for “typically 10”, “chloride (NaCl); 50 mM potassium fluoride (KF);” for “chloride (NaCl),”, “between BRD4(2)” for “between BRD4(1)”
as §4, with “BRD4(2)/Ac-H4” for “BRD4(1)/Ac-H4”, “chelate” for “cryptate”
as §5, with “BRD4(2)” for “BRD4(1)”

| SMILES | pIC50 [1] | pIC50 [2] |
| --- | --- | --- |
| COc1cc(C(=O)NC2CCN(C)CC2)ccc1Nc1ccc2c(n1)N(C1CCCCC1)[C@H](C)C(=O)N2C [Example 12, 4-{[(3R)-4-Cyclohexyl-1,3-dimethyl-2-oxo-1,2,3,4-tetrahydropyrido[2,3-b]pyrazin-6-yl]amino}-3-methoxy-N-(1-methylpiperidin-4-yl)benzamide] | 6.98 | 6.95 |
| CC(C)N1CCN(S(=O)(=O)c2ccc(Nc3ccc4c(n3)N(C3CCOCC3)[C@H](C)C(=O)N4C)cc2)CC1 [Example 16, (3R)-1,3-Dimethyl-6-[(4-{[4-(propan-2-yl)piperazin-1-yl]sulphonyl}phenyl)amino]-4-(tetrahydro-2H-pyran-4-yl)-3,4-dihydropyrido[2,3-b]pyrazin-2(1H)-one] | 6.54 | 6.67 |
| C[C@@H]1C(=O)N(C)c2ccc(Nc3ccc(S(=O)(=O)N(C)C)cc3)nc2N1C1CCCCC1 [Example 17, 4-{[(3R)-4-Cyclohexyl-1,3-dimethyl-2-oxo-1,2,3,4-tetrahydropyrido[2,3-b]pyrazin-6-yl]amino}-N,N-dimethylbenzenesulphonamide] | 6.51 | 6.95 |
| C[C@@H]1C(=O)N(C)c2ccc(Nc3ccc(S(=O)(=O)NCCc4cccnc4)cc3)nc2N1C1CCOCC1 [Example 19, 4-{[(3R)-1,3-dimethyl-2-oxo-4-(tetrahydro-2H-pyran-4-yl)-1,2,3,4-tetrahydropyrido[2,3-b]pyrazin-6-yl]amino}-N-[2-(pyridin-3-yl)ethyl]benzene-sulphonamide] | 6.66 | 6.73 |
| COc1cc(C(=O)N2CCN(C(C)C)CC2)ccc1Nc1ccc2c(n1)N(C1CCCCC1)[C@H](C)C(=O)N2C [Example 28, (3R)-4-Cyclohexyl-6-[(2-methoxy-4-{[4-(propan-2-yl)piperazin-1-yl]carbonyl}phenyl)amino]-1,3-dimethyl-3,4-dihydropyrido[2,3-b]pyrazin-2(1H)-one] | 6.71 | 6.94 |
| C[C@@H]1C(=O)N(C)c2ccc(Nc3ccc(C(=O)N4CC5(CCS5(=O)=O)C4)cc3)nc2N1C1CCCCC1 [Example 29, (3R)-4-Cyclohexyl-6-({4-[(1,1-dioxido-1-thia-6-azaspiro[3.3]hept-6-yl)carbonyl]phenyl}amino)-1,3-dimethyl-3,4-dihydropyrido[2,3-b]pyrazin-2(1H)-one] | 6.62 | 6.83 |
| CC(C)N1CCN(C(=O)c2ccc(Nc3ccc4c(n3)N(C3CCCCC3)[C@H](C)C(=O)N4C)cc2)CC1 [Example 31, (3R)-4-Cyclohexyl-1,3-dimethyl-6-[(4-{[4-(propan-2-yl)piperazin-1-yl]carbonyl}phenyl)amino]-3,4-dihydropyrido[2,3-b]pyrazin-2(1H)-one] | 6.62 | 6.97 |
| COc1cc(C(=O)N2CC3(COC3)C2)ccc1Nc1ccc2c(n1)N(C1CCCCCC1)[C@H](C)C(=O)N2C [Example 32, (3R)-4-Cycloheptyl-6-{[2-methoxy-4-(2-oxa-6-azaspiro[3.3]hept-6-ylcarbonyl)phenyl]amino}-1,3-dimethyl-3,4-dihydropyrido[2,3-b]pyrazin-2(1H)-one] | 6.42 | 7.11 |
| C[C@@H]1C(=O)N(C)c2ccc(Nc3ccc(C(=O)N4CC5(CCS5(=O)=O)C4)cc3)nc2N1C1CCCCCC1 [Example 33, (3R)-4-Cycloheptyl-6-({4-[(1,1-dioxido-1-thia-6-azaspiro[3.3]hept-6-yl)carbonyl]phenyl}amino)-1,3-dimethyl-3,4-dihydropyrido[2,3-b]pyrazin-2(1H)-one] | 6.48 | 7.10 |
| C[C@@H]1C(=O)N(C)c2ccc(Nc3ccc(C(=O)NCc4ccccn4)cc3)nc2N1C1CCOCC1 [Example 35, 4-{[(3R)-1,3-Dimethyl-2-oxo-4-(tetrahydro-2H-pyran-4-yl)-1,2,3,4-tetrahydropyrido[2,3-b]pyrazin-6-yl]amino}-N-(pyridin-2-ylmethyl)benzamide] | 6.92 | 6.63 |
| Cc1cc(C(=O)N2CCN(C)CC2)ccc1Nc1ccc2c(n1)N(C1CCOCC1)[C@H](C)C(=O)N2C [Example 36, (3R)-1,3-Dimethyl-6-({2-methyl-4-[(4-methylpiperazin-1-yl)carbonyl]phenyl}amino)-4-(tetrahydro-2H-pyran-4-yl)-3,4-dihydropyrido[2,3-b]pyrazin-2(1H)-one] | 6.59 | 6.61 |
| COc1cc(C(=O)NC2CCN(C(C)=O)CC2)ccc1Nc1ccc2c(n1)N(C1CCCCC1)[C@H](C)C(=O)N2C [Example 39, N-(1-Acetylpiperidin-4-yl)-4-{[(3R)-4-cyclohexyl-1,3-dimethyl-2-oxo-1,2,3,4-tetrahydropyrido[2,3-b]pyrazin-6-yl]amino}-3-methoxybenzamide] | 6.48 | 6.84 |
| COc1cc(C(=O)N2CCN(C(C)C)CC2)ccc1Nc1ccc2c(n1)N(C1CCCCCC1)[C@H](C)C(=O)N2C [Example 40, (3R)-4-Cycloheptyl-6-[(2-methoxy-4-{[4-(propan-2-yl)piperazin-1-yl]carbonyl}phenyl)amino]-1,3-dimethyl-3,4-dihydropyrido[2,3-b]pyrazin-2(1H)-one] | 6.53 | 6.79 |
